Assay results taken from ChEMBL document CHEMBL4330132, “5-Keto-3-cyano-2,4-diaminothiophenes as selective maternal embryonic leucine zipper kinase inhibitors” (Bioorg Med Chem Lett, 2019).

Legend:
[1] = system: Tyrosine-protein kinase ABL1 (Homo sapiens), P00519 [E255K]; test: Binding affinity to human phosphorylated ABL1 E255K mutant (S229 to K512 residues) expressed in mammalian expression system assessed as residual binding level at 1 uM by Kinomescan method relative to control
[2] = system: Serine/threonine-protein kinase B-raf (Homo sapiens), P15056 [V600E]; test: Binding affinity to human partial length BRAF V600E mutant (S429 to E741 residues) expressed in mammalian expression system assessed as residual binding level at 1 uM by Kinomescan method relative to control
[3] = molecular target: Serine/threonine-protein kinase BRSK2 (Homo sapiens) (UniProt Q8IWQ3); test: Binding affinity to wild-type human full length BRSK2 (M1 to L674 residues) expressed in bacterial expression system assessed as residual binding level at 1 uM by Kinomescan method relative to control
[4] = molecular target: Cyclin-dependent kinase 4/cyclin D1 (Homo sapiens) (UniProt P11802+P24385); test: Binding affinity to wild-type human full length CDK4/cyclinD1 (M1 to E303 residues) expressed in mammalian expression system assessed as residual binding level at 1 uM by Kinomescan method relative to control
[5] = molecular target: Macrophage colony-stimulating factor 1 receptor (Homo sapiens) (UniProt P07333); test: Binding affinity to wild-type human partial length CSF1R (I564 to S939 residues) expressed in bacterial expression system assessed as residual binding level at 1 uM by Kinomescan method relative to control
[6] = molecular target: Casein kinase I isoform alpha (Homo sapiens) (UniProt P48729); test: Binding affinity to wild-type human partial length CSNK1A1 (M1 to L450 residues) expressed in mammalian expression system assessed as residual binding level at 1 uM by Kinomescan method relative to control
[7] = molecular target: Casein kinase I isoform gamma-2 (Homo sapiens) (UniProt P78368); test: Binding affinity to wild-type human full length CSNK1G2 (M1 to K415 residues) expressed in bacterial expression system assessed as residual binding level at 1 uM by Kinomescan method relative to control
[8] = molecular target: Megakaryocyte-associated tyrosine-protein kinase (Homo sapiens) (UniProt P42679); test: Binding affinity to wild-type human full length CTK (M43 to P508 residues) expressed in mammalian expression system assessed as residual binding level at 1 uM by Kinomescan method relative to control
[9] = molecular target: Rhodopsin kinase GRK1 (Homo sapiens) (UniProt Q15835); test: Binding affinity to wild-type human full length GRK1 (M1 to S563 residues) expressed in mammalian expression system assessed as residual binding level at 1 uM by Kinomescan method relative to control
[10] = molecular target: Mitogen-activated protein kinase kinase kinase kinase 1 (Homo sapiens) (UniProt Q92918); test: Binding affinity to wild-type human full length HPK1 (M1 to R799 residues) expressed in bacterial expression system assessed as residual binding level at 1 uM by Kinomescan method relative to control
[11] = molecular target: Tyrosine-protein kinase JAK2 (Homo sapiens) (UniProt O60674); test: Binding affinity to wild-type human partial length JAK2 JH1 catalytic domain (A829 to G1132 residues) expressed in mammalian expression system assessed as residual binding level at 1 uM by Kinomescan method relative to control
[12] = system: Mast/stem cell growth factor receptor Kit (Homo sapiens), P10721 [UNDEFINED MUTATION]; test: Binding affinity to human partial length KIT V559D/[…] double mutant (Y545 to D952 residues) expressed in bacterial expression system assessed as residual binding level at 1 uM by Kinomescan method relative to control
[13] = molecular target: Mitogen-activated protein kinase kinase kinase 13 (Homo sapiens) (UniProt O43283); test: Binding affinity to wild-type human full length LZK (M1 to W966 residues) expressed in mammalian expression system assessed as residual binding level at 1 uM by Kinomescan method relative to control
[14] = molecular target: Dual specificity mitogen-activated protein kinase kinase 4 (Homo sapiens) (UniProt P45985); test: Binding affinity to wild-type human partial length MEK4 (S84 to D399 residues) expressed in mammalian expression system assessed as residual binding level at 1 uM by Kinomescan method relative to control
[15] = molecular target: Myosin light chain kinase 2, skeletal/cardiac muscle (Homo sapiens) (UniProt Q9H1R3); test: Binding affinity to wild-type human partial length MYLK2 (D258 to K570 residues) expressed in bacterial expression system assessed as residual binding level at 1 uM by Kinomescan method relative to control
[16] = molecular target: Serine/threonine-protein kinase Nek7 (Homo sapiens) (UniProt Q8TDX7); test: Binding affinity to wild-type human full length NEK7 (M1 to S302 residues) expressed in bacterial expression system assessed as residual binding level at 1 uM by Kinomescan method relative to control
[17] = molecular target: Mitogen-activated protein kinase 12 (Homo sapiens) (UniProt P53778); test: Binding affinity to wild-type human full length p38-gamma (M1 to L367 residues) expressed in mammalian expression system assessed as residual binding level at 1 uM by Kinomescan method relative to control
[18] = molecular target: Phosphatidylinositol 4,5-bisphosphate 3-kinase catalytic subunit beta isoform (Homo sapiens) (UniProt P42338); test: Binding affinity to wild-type human partial length PIK3CB (P118 to S1070 residues) expressed in mammalian expression system assessed as residual binding level at 1 uM by Kinomescan method relative to control
[19] = molecular target: Phosphatidylinositol 5-phosphate 4-kinase type-2 gamma (Homo sapiens) (UniProt Q8TBX8); test: Binding affinity to wild-type human partial length PIP5K2C (M1 to A421 residues) expressed in mammalian expression system assessed as residual binding level at 1 uM by Kinomescan method relative to control
[20] = molecular target: Protein kinase C iota type (Homo sapiens) (UniProt P41743); test: Binding affinity to wild-type human partial length PRKCI (H215 to V587 residues) expressed in mammalian expression system assessed as residual binding level at 1 uM by Kinomescan method relative to control
[21] = molecular target: Protein kinase C theta type (Homo sapiens) (UniProt Q04759); test: Binding affinity to wild-type human partial length PRKCQ (L350 to S706 residues) expressed in bacterial expression system assessed as residual binding level at 1 uM by Kinomescan method relative to control
[22] = system: Proto-oncogene tyrosine-protein kinase receptor Ret (Homo sapiens), P07949 [M918T]; test: Binding affinity to human partial length RET M918T mutant (E713 to D1014 residues) expressed in bacterial expression system assessed as residual binding level at 1 uM by Kinomescan method relative to control
[23] = molecular target: TGF-beta receptor type-1 (Homo sapiens) (UniProt P36897); test: Binding affinity to wild-type human partial length TGFBR1 (D179 to M503 residues) expressed in bacterial expression system assessed as residual binding level at 1 uM by Kinomescan method relative to control
[24] = molecular target: Serine/threonine-protein kinase ULK3 (Homo sapiens) (UniProt Q6PHR2); test: Binding affinity to wild-type human partial length ULK3 (M1 to Q290 residues) expressed in mammalian expression system assessed as residual binding level at 1 uM by Kinomescan method relative to control

Chain of Megakaryocyte-associated tyrosine-protein kinase (Homo sapiens) (P42679 whole entry, the tested form may be a part): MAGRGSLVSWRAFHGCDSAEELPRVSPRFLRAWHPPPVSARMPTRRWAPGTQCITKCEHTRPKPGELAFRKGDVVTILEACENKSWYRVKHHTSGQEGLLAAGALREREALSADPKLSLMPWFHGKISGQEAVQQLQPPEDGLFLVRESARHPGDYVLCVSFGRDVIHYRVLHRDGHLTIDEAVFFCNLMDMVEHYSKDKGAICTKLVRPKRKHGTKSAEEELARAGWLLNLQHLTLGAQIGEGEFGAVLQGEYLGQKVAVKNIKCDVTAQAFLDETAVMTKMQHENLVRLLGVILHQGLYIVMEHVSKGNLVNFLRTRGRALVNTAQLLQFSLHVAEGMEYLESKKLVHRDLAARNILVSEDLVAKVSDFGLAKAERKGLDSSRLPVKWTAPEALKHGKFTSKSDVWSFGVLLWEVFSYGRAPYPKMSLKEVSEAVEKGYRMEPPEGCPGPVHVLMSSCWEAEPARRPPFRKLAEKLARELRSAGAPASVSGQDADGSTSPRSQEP
Chain of Phosphatidylinositol 4,5-bisphosphate 3-kinase catalytic subunit beta isoform (Homo sapiens) (P42338 whole entry, looked up, the tested form may be a part, canonical isoform): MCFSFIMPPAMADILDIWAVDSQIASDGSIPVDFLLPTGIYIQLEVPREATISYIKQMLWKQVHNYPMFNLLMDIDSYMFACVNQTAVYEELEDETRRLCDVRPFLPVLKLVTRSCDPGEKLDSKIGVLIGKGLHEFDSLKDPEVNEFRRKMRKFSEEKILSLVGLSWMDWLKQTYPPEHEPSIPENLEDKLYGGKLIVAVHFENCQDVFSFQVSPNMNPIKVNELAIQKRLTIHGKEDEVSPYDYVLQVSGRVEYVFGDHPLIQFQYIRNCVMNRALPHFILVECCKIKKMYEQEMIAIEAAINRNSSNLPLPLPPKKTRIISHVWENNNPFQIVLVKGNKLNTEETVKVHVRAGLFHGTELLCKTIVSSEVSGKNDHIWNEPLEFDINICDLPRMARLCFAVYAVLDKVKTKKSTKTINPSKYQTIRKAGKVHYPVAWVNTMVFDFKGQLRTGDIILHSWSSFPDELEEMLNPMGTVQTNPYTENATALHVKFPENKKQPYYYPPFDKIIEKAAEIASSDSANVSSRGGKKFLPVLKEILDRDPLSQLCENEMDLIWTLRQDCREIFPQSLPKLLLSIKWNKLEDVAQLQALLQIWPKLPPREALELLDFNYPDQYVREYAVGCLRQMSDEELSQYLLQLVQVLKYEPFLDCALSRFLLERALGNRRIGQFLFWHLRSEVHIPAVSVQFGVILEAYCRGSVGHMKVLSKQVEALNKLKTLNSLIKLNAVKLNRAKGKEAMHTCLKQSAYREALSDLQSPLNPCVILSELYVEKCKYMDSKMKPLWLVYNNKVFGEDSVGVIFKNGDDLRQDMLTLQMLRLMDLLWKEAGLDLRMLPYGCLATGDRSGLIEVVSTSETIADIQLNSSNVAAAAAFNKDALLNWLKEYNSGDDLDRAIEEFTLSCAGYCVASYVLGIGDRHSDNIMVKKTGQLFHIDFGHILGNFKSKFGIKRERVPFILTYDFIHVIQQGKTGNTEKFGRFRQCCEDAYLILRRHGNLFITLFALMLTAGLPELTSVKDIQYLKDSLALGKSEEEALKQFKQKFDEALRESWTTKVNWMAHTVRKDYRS
Chain of Macrophage colony-stimulating factor 1 receptor (Homo sapiens) (P07333 whole entry, the tested form may be a part, canonical isoform): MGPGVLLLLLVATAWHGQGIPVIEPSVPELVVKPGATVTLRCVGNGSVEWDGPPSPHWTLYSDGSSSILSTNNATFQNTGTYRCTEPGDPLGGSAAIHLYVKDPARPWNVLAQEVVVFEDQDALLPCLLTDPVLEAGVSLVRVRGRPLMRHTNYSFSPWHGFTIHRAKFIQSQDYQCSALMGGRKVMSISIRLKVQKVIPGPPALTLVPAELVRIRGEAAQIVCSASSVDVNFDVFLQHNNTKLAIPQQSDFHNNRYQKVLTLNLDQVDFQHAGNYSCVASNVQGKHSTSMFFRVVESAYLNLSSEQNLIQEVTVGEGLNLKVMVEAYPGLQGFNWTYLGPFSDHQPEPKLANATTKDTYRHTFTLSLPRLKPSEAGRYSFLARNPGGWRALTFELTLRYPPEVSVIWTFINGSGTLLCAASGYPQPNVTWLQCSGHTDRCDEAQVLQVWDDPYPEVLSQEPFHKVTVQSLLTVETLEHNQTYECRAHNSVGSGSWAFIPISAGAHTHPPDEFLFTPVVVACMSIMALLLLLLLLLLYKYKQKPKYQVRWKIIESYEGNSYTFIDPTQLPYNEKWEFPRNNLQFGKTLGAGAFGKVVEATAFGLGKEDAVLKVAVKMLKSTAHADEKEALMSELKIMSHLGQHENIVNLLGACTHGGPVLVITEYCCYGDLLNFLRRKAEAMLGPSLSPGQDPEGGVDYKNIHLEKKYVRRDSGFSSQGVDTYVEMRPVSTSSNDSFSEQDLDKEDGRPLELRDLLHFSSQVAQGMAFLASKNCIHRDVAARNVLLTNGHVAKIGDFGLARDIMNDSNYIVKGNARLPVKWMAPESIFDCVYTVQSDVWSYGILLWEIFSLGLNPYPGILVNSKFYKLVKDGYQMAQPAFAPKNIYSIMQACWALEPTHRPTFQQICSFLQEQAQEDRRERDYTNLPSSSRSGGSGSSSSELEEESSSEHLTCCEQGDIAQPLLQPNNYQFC
Chain of Tyrosine-protein kinase ABL1 (Homo sapiens), P00519 [E255K] (P00519 whole entry E255K, the tested form may be a part): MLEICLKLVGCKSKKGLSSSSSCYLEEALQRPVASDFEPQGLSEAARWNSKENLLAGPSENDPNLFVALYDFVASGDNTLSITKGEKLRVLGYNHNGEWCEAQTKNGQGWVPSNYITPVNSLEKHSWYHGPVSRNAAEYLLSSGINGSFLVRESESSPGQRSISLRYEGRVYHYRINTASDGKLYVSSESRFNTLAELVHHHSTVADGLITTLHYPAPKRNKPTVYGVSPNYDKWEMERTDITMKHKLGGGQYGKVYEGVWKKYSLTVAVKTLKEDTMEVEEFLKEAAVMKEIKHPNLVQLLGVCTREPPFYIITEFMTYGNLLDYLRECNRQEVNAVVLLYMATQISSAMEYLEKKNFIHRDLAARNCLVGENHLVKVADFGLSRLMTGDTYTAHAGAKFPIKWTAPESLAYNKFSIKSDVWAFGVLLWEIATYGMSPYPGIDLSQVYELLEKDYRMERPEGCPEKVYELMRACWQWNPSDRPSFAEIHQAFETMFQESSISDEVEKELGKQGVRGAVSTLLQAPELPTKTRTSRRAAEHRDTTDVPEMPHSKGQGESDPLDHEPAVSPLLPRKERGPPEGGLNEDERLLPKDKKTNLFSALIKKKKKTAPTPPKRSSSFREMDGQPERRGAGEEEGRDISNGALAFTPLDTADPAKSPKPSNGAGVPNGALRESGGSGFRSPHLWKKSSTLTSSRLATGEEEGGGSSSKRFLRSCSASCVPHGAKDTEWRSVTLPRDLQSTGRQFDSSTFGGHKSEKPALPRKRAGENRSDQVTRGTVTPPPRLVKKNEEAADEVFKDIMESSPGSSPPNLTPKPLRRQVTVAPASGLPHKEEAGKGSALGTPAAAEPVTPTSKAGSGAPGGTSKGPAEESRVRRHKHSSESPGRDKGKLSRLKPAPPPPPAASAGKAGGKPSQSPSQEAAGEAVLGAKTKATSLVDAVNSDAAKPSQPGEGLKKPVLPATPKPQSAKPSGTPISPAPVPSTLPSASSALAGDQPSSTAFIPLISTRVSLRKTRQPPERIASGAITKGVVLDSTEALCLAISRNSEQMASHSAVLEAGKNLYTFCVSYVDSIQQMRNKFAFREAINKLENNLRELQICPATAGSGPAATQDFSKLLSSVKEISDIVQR
Chain of Myosin light chain kinase 2, skeletal/cardiac muscle (Homo sapiens) (Q9H1R3 whole entry, the tested form may be a part): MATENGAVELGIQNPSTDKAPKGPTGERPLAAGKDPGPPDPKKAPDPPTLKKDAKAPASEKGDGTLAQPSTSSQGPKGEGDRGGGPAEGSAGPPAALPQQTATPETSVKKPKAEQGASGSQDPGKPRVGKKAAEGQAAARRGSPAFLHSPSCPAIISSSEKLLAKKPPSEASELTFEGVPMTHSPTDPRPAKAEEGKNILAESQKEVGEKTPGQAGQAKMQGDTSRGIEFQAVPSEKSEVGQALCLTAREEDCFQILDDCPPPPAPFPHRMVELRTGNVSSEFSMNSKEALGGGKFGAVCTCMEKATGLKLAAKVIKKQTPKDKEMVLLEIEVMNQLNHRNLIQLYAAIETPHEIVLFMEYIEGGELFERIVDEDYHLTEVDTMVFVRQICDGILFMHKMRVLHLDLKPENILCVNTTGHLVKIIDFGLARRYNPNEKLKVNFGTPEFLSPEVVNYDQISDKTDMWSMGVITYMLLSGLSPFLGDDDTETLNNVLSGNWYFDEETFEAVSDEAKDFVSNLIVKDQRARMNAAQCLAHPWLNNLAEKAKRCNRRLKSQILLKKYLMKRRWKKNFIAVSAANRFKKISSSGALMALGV
Chain of Serine/threonine-protein kinase Nek7 (Homo sapiens) (Q8TDX7 whole entry, looked up, the tested form may be a part): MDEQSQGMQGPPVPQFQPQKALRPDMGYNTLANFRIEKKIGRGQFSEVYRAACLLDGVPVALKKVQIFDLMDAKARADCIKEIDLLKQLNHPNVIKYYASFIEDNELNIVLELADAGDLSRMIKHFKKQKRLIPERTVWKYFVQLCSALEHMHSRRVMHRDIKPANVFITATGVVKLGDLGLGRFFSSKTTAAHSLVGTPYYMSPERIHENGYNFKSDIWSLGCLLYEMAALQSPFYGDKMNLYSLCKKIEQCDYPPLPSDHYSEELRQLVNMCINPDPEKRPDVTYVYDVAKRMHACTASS
Chain of Phosphatidylinositol 5-phosphate 4-kinase type-2 gamma (Homo sapiens) (Q8TBX8 whole entry, the tested form may be a part): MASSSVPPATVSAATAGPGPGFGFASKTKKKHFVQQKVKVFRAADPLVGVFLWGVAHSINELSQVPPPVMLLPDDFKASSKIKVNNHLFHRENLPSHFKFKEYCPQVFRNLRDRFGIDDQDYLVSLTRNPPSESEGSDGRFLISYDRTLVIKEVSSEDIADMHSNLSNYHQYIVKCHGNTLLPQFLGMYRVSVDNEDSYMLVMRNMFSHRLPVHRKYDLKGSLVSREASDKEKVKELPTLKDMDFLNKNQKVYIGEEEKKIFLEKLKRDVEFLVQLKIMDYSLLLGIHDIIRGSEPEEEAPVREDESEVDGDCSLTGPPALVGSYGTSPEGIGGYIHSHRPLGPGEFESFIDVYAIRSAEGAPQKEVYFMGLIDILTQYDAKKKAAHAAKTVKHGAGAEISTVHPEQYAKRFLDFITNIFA

CC(C)Nc1sc(C(=O)c2ccc(Cl)s2)c(N)c1C#N
Activity [1]: 100% | Activity [2]: 97% | Activity [3]: 58% | Activity [4]: 100% | Activity [5]: 97% | Activity [6]: 100% | Activity [7]: 74% | Activity [8]: 100% | Activity [9]: 100% | Activity [10]: 100% | Activity [11]: 100% | Activity [12]: 57% | Activity [13]: 92% | Activity [14]: 82% | Activity [15]: 81% | Activity [16]: 84% | Activity [17]: 100% | Activity [18]: 90% | Activity [19]: 100% | Activity [20]: 100% | Activity [21]: 57% | Activity [22]: 86% | Activity [23]: 100% | Activity [24]: 99%
